Source: publication PMC9186362, “Design and biological evaluation of substituted 5,7-dihydro-6H-indolo[2,3-c]quinolin-6-one as novel selective Haspin inhibitors” (Journal of Enzyme Inhibition and Medicinal Chemistry, 2022)

Columns and labels:
MAPK15 (ERK7) = MAPK15 (ERK7) (Homo sapiens, UniProt Q8TD08); assay: LanthaScreen Binding - Eu-anti-His; conditions: read-out: Percentage of inhibition
Method: (§1) We further evaluated the selectivity profile of compound 55 on a larger panel of kinases (SelectScreen Whole Panel, Life Technologies). The inhibition profile of 55, evaluated at 1 μM, is depicted on a dendrogram on Figure 3 where kinases inhibited by a minimum of 80% are shown. A full list of the kinases tested is shown on Table S1 in supplementary information.

AMPK (A1/B1/G3) = biological target: T1, AMPK (A1/B1/G3) (Homo sapiens, UniProt Q13131); assay: LanthaScreen Binding - Eu-anti-His; conditions: read-out: Percentage of inhibition
T1 construct: purchased Life Technologies (SelectScreen service)
Method: as §1

STK33 = biological target: T2, STK33 (Homo sapiens, UniProt Q9BYT3); assay: LanthaScreen Binding - Eu-anti-His; conditions: read-out: Percentage of inhibition
T2 construct: purchased Life Technologies (SelectScreen Whole Panel service)
Method: as §1

AMPK (A2/B2/G1) = biological target: T3, AMPK (A2/B2/G1) (Homo sapiens, UniProt P54646); assay: LanthaScreen Binding - Eu-anti-His; conditions: read-out: Percentage of inhibition
T3 construct: purchased Life Technologies (SelectScreen service)
Method: as §1

WNK1 = WNK1 (Homo sapiens, UniProt Q9H4A3); assay: LanthaScreen Binding - Eu-anti-His; conditions: read-out: Percentage of inhibition
Method: as §1

CAMKK1 (CAMKKA) = biological target: T4, CAMKK1 (CAMKKA) (Homo sapiens, UniProt Q8N5S9); assay: LanthaScreen Binding - Eu-anti-His; conditions: read-out: Percentage of inhibition
T4 construct: purchased Life Technologies (SelectScreen)
Method: as §1

[1] = biological target: T5, MAP2K6 (MKK6) S207E T211E (Homo sapiens, UniProt P52564, S207E/T211E); assay: LanthaScreen Binding - Eu-anti-His; conditions: read-out: Percentage of inhibition
T5 construct: purchased Life Technologies (SelectScreen Whole Panel service)
T5 sequence (P52564 whole entry S207E/T211E): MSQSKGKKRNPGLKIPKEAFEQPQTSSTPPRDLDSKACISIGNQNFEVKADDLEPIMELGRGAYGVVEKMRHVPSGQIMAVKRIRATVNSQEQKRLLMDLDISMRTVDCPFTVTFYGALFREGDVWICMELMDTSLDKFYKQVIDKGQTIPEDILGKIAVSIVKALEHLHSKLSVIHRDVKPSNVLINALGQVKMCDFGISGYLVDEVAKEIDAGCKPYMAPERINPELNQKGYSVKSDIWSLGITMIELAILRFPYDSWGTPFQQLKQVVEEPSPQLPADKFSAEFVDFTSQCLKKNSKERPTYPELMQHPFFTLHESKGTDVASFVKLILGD
Method: as §1

TEC = biological target: T6, TEC (Homo sapiens, UniProt P42680); assay: LanthaScreen Binding - Eu-anti-His; conditions: read-out: Percentage of inhibition
T6 construct: purchased Life Technologies
Method: as §1

STK39 (STLK3) = biological target: T7, STK39 (STLK3) (Homo sapiens, UniProt Q9UEW8); assay: LanthaScreen Binding - Eu-anti-His; conditions: read-out: Percentage of inhibition
T7 construct: purchased Life Technologies (SelectScreen service)
Method: as §1

KIT V654A = biological target: T8, KIT V654A (Homo sapiens, UniProt P10721, V654A); assay: LanthaScreen Binding - Eu-anti-His; conditions: read-out: Percentage of inhibition
T8 construct: purchased Life Technologies (SelectScreen service)
Method: as §1

BMPR2 = biological target: T9, BMPR2 (Homo sapiens, UniProt Q13873); assay: LanthaScreen Binding - Eu-anti-His; conditions: read-out: Percentage of inhibition
T9 construct: purchased Life Technologies (SelectScreen Whole Panel)
Method: as §1

STK16 (PKL12) = biological target: T10, STK16 (PKL12) (Homo sapiens, UniProt O75716); assay: LanthaScreen Binding - Eu-anti-His; conditions: read-out: Percentage of inhibition
T10 construct: purchased Life Technologies (SelectScreen Whole Panel)
T10 sequence (O75716 whole entry): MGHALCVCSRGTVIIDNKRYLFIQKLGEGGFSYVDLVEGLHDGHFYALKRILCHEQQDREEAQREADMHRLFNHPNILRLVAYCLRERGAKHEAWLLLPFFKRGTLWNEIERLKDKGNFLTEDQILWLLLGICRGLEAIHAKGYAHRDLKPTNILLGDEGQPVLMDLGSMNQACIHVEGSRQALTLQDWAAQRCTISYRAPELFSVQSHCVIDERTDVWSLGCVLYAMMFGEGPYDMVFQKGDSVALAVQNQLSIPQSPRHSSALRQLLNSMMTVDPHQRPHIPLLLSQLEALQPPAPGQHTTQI
Method: as §1

CDK9/cyclin K = CDK9/cyclin K (Homo sapiens, UniProt P50750); assay: LanthaScreen Binding - Eu-anti-His; conditions: read-out: Percentage of inhibition
Method: as §1

AMPK (A1/B2/G1) = biological target: T11, AMPK (A1/B2/G1) (Homo sapiens, UniProt Q13131); assay: LanthaScreen Binding - Eu-anti-His; conditions: read-out: Percentage of inhibition
T11 construct: purchased Life Technologies (SelectScreen service)
Method: as §1

CDK8/cyclin C = biological target: T12, CDK8/cyclin C (Homo sapiens, UniProt P49336); assay: LanthaScreen Binding - Eu-anti-His; conditions: read-out: Percentage of inhibition
T12 construct: purchased Life Technologies
Method: as §1

LIMK1 = biological target: T13, LIMK1 (Homo sapiens, UniProt P53667); assay: LanthaScreen Binding - Eu-anti-His; conditions: read-out: Percentage of inhibition
T13 construct: purchased Life Technologies (SelectScreen service)
Method: as §1

MAP2K2 (MEK2) = biological target: T14, MAP2K2 (MEK2) (Homo sapiens, UniProt P36507); assay: LanthaScreen Binding - Eu-anti-His; conditions: read-out: Percentage of inhibition
T14 construct: purchased Life Technologies
Method: as §1

MAPK9 (JNK2) = biological target: T15, MAPK9 (JNK2) (Homo sapiens, UniProt P45984); assay: LanthaScreen Binding - Eu-anti-His; conditions: read-out: Percentage of inhibition
T15 construct: purchased Life Technologies (SelectScreen service)
Method: as §1

[2] = biological target: T16, MAP3K7/MAP3K7IP1 (TAK1-TAB1) (Homo sapiens, UniProt O43318); assay: LanthaScreen Binding - Eu-anti-His; conditions: read-out: Percentage of inhibition
T16 construct: purchased Life Technologies (SelectScreen Whole Panel)
T16 sequence (O43318 with tags, fused parts or gaps limits assumed): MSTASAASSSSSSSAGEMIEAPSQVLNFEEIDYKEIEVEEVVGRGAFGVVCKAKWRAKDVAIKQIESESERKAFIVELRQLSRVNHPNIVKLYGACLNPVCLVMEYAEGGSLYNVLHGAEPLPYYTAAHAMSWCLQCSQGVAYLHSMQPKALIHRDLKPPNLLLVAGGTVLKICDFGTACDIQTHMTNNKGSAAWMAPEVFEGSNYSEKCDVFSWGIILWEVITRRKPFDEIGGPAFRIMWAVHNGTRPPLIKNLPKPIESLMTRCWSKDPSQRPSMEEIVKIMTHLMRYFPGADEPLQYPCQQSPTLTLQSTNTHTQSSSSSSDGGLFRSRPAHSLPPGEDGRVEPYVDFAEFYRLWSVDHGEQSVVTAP
Method: as §1

LRRK2 FL = biological target: T17, LRRK2 FL (Homo sapiens, UniProt Q5S007); assay: SelectScreen Adapta; format: biochemical; conditions: ATP Km, read-out: Percentage of inhibition
T17 construct: purchased Life Technologies
Method: as §1

CAMK1 (CaMK1) = biological target: T18, CAMK1 (CaMK1) (Homo sapiens, UniProt Q14012); assay: SelectScreen Adapta; format: biochemical; conditions: ATP 10 µM, read-out: Percentage of inhibition
T18 construct: purchased Life Technologies (SelectScreen Whole Panel service)
Method: as §1

SPHK1 = biological target: T19, SPHK1 (Homo sapiens, UniProt Q9NYA1); assay: SelectScreen Adapta; format: biochemical; conditions: ATP Km, read-out: Percentage of inhibition
T19 construct: purchased Life Technologies (SelectScreen Whole Panel)
Method: as §1

PIK3C3 (hVPS34) = biological target: T20, PIK3C3 (hVPS34) (Homo sapiens, UniProt Q8NEB9); assay: SelectScreen Adapta; format: biochemical; conditions: ATP Km, read-out: Percentage of inhibition
T20 construct: purchased Life Technologies (SelectScreen)
Method: as §1

PIP5K1B = biological target: T21, PIP5K1B (Homo sapiens, UniProt O14986); assay: SelectScreen Adapta; format: biochemical; conditions: ATP 10 µM, read-out: Percentage of inhibition
T21 construct: purchased Life Technologies
Method: as §1

[3] = biological target: T22, PIK3CA/PIK3R3 (p110 alpha/p55 gamma) (Homo sapiens, UniProt P42336); assay: SelectScreen Adapta; format: biochemical; conditions: ATP Km, read-out: Percentage of inhibition
T22 construct: purchased Life Technologies (SelectScreen Whole Panel)
Method: as §1

NUAK1 (ARK5) = NUAK1 (ARK5) (Homo sapiens, UniProt O60285); assay: SelectScreen Adapta; format: biochemical; conditions: ATP Km, read-out: Percentage of inhibition
Method: as §1

LRRK2 G2019S = biological target: T23, LRRK2 G2019S (Homo sapiens, UniProt Q5S007, G2019S); assay: SelectScreen Adapta; format: biochemical; conditions: ATP Km, read-out: Percentage of inhibition
T23 construct: purchased Life Technologies
Method: as §1

CDK6/cyclin D1 = CDK6/cyclin D1 (Homo sapiens, UniProt Q00534); assay: SelectScreen Adapta; format: biochemical; conditions: ATP 10 µM, read-out: Percentage of inhibition
Sequence of CDK6/cyclin D1 (Q00534 whole entry): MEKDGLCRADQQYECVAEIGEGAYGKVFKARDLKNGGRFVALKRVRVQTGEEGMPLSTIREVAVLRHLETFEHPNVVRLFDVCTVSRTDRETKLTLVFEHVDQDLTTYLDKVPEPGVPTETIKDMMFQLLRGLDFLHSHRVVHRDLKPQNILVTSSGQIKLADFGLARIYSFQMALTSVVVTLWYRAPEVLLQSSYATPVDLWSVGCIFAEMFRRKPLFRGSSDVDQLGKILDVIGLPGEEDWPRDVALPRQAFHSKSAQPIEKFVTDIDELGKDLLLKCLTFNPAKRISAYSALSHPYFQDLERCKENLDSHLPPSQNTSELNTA
Sequence of CDK6/cyclin D1 (P24385 whole entry partner): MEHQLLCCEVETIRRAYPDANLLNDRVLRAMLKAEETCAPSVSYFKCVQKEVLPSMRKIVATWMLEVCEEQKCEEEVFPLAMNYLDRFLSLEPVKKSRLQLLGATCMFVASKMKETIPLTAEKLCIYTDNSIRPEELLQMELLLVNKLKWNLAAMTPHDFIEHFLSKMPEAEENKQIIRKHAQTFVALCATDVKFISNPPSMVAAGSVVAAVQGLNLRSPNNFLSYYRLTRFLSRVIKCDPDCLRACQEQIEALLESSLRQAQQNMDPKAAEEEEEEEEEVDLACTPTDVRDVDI
Method: as §1

PI4K2B (PI4K2 beta) = biological target: T24, PI4K2B (PI4K2 beta) (Homo sapiens, UniProt Q8TCG2); assay: SelectScreen Adapta; format: biochemical; conditions: ATP Km, read-out: Percentage of inhibition
T24 construct: purchased Life Technologies (SelectScreen Whole Panel)
Method: as §1

PI4KB (PI4K beta) = biological target: T25, PI4KB (PI4K beta) (Homo sapiens, UniProt Q9UBF8); assay: SelectScreen Adapta; format: biochemical; conditions: ATP Km, read-out: Percentage of inhibition
T25 construct: purchased Life Technologies
Method: as §1

PIK3C2G (PI3K-C2 gamma) = biological target: T26, PIK3C2G (PI3K-C2 gamma) (Homo sapiens, UniProt O75747); assay: SelectScreen Adapta; format: biochemical; conditions: ATP Km, read-out: Percentage of inhibition
T26 construct: purchased Life Technologies (SelectScreen Whole Panel service)
Method: as §1

CDK7/cyclin H/MNAT1 = biological target: T27, CDK7/cyclin H/MNAT1 (Homo sapiens, UniProt P50613); assay: SelectScreen Adapta; format: biochemical; conditions: ATP Km, read-out: Percentage of inhibition
T27 construct: purchased Life Technologies
T27 sequence (P50613 whole entry): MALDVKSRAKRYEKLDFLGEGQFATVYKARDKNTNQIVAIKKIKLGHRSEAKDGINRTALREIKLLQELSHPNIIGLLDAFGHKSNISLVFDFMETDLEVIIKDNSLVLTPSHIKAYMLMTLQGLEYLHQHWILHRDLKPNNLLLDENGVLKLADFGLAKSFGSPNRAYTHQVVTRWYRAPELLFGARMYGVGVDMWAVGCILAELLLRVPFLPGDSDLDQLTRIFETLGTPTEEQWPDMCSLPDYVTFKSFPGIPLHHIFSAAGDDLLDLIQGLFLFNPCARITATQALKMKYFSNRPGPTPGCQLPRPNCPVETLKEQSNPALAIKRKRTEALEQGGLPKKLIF
T27 sequence (P51946 whole entry partner): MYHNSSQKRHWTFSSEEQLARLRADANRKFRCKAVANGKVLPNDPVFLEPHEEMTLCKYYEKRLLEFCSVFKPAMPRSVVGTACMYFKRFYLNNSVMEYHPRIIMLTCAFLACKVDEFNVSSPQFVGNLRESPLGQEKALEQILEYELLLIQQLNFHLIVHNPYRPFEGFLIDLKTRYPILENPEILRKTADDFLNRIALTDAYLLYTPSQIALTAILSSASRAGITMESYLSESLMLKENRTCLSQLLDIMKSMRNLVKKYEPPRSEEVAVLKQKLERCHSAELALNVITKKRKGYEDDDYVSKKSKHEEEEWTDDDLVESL
T27 sequence (P51948 whole entry partner): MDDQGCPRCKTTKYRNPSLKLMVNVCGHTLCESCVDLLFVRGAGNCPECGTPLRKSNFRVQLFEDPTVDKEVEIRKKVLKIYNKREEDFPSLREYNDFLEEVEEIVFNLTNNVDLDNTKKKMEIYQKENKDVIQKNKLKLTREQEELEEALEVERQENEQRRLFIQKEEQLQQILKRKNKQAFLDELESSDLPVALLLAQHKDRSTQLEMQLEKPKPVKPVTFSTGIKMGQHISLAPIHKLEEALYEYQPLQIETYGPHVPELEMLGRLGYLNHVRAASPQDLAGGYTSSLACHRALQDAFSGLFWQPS
Method: as §1

[4] = biological target: T28, PIK3CB/PIK3R2 (p110 beta/p85 beta) (Homo sapiens, UniProt P42338); assay: SelectScreen Adapta; format: biochemical; conditions: ATP Km, read-out: Percentage of inhibition
T28 construct: purchased Life Technologies
Method: as §1

DAPK1 = DAPK1 (Homo sapiens, UniProt P53355); assay: SelectScreen Adapta; format: biochemical; conditions: ATP Km, read-out: Percentage of inhibition
Method: as §1

PI4KA (PI4K alpha) = biological target: T29, PI4KA (PI4K alpha) (Homo sapiens, UniProt P42356); assay: SelectScreen Adapta; format: biochemical; conditions: ATP 10 µM, read-out: Percentage of inhibition
T29 construct: purchased Life Technologies (SelectScreen Whole Panel)
Method: as §1

LRRK2 = biological target: T30, LRRK2 (Homo sapiens, UniProt Q5S007); assay: SelectScreen Adapta; format: biochemical; conditions: ATP Km, read-out: Percentage of inhibition
T30 construct: purchased Life Technologies (SelectScreen service)
Method: as §1

[5] = biological target: PIK3CA E542K/PIK3R1 (p110 alpha E542K/p85 alpha (Homo sapiens, UniProt P42336, E542K)); assay: SelectScreen Adapta; format: biochemical; conditions: ATP 10 µM, read-out: Percentage of inhibition
Sequence of PIK3CA E542K/PIK3R1 (p110 alpha E542K/p85 alpha (P42336 whole entry E542K): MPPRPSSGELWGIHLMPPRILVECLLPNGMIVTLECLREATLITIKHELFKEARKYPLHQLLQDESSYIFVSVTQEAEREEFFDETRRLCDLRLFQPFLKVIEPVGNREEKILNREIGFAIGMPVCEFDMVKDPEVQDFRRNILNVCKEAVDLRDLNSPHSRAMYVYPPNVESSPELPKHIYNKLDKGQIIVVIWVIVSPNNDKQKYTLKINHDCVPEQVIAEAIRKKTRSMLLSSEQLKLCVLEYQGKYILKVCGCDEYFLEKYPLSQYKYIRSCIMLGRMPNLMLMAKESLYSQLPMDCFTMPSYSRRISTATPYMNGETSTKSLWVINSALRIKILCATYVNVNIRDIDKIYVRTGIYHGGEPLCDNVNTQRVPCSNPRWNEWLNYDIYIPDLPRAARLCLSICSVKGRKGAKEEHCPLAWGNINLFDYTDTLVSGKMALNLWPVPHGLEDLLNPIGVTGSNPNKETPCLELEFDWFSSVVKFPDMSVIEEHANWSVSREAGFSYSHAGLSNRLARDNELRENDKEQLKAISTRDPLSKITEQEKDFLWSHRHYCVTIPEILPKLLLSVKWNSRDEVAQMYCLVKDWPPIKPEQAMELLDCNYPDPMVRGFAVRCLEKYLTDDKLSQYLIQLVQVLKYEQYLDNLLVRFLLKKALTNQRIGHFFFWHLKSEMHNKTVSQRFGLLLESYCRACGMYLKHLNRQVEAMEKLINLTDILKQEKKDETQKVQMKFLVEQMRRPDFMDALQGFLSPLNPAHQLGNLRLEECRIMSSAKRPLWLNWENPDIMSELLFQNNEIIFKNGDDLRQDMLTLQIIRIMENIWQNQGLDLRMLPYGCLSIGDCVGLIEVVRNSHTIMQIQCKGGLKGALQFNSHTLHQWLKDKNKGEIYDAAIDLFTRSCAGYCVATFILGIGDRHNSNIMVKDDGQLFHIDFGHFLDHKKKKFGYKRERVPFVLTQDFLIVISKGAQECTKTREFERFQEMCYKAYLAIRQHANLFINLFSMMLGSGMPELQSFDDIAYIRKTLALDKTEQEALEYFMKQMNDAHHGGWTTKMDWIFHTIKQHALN
Sequence of PIK3CA E542K/PIK3R1 (p110 alpha E542K/p85 alpha (P27986 whole entry partner): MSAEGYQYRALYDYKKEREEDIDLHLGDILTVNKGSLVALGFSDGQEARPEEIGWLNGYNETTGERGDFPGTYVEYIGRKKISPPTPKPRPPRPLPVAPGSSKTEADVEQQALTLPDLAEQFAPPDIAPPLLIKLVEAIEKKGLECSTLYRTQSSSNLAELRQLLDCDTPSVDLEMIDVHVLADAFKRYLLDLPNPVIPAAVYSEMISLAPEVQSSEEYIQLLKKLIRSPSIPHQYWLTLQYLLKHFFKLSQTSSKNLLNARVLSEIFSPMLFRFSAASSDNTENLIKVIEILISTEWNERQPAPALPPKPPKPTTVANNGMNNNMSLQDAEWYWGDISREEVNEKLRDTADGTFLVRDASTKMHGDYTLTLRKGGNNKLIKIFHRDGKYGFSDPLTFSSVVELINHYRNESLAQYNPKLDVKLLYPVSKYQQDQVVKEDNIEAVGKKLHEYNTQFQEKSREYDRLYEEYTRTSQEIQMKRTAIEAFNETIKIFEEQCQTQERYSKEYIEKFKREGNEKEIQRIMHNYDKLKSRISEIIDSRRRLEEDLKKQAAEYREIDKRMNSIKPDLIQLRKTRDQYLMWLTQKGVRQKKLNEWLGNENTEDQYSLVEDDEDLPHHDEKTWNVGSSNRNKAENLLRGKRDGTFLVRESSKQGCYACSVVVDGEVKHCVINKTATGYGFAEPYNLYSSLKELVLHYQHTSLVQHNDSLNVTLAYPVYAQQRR
Method: as §1

Sequence of MAPK15 (ERK7) (Q8TD08 whole entry): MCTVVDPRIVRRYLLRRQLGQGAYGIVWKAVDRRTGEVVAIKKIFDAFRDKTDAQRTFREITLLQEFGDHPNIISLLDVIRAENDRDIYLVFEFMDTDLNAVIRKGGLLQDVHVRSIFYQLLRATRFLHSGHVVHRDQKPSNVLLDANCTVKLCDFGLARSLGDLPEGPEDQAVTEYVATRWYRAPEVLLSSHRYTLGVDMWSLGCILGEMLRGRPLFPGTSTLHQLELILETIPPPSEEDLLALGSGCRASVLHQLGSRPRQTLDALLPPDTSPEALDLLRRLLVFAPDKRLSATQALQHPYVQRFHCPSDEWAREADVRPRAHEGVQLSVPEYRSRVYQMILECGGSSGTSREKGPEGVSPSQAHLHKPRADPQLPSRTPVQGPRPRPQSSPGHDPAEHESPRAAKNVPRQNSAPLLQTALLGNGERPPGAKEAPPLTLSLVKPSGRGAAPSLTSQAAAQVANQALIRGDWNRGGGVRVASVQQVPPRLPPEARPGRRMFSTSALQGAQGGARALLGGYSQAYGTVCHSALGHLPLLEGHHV

COc1ccc2[nH]c3c(=O)[nH]c4ccc(O)cc4c3c2c1 [Compound 55, 2-Hydroxy-10-methoxy-5,7-dihydro-6H-indolo[2,3-c]quinolin-6-one]
inhibition at 1 µM (MAPK15 (ERK7)): 58% | inhibition at 1 µM (AMPK (A1/B1/G3)): 82% | inhibition at 1 µM (STK33): 46% | inhibition at 1 µM (AMPK (A2/B2/G1)): 70% | inhibition at 1 µM (WNK1): 7% | inhibition at 1 µM (CAMKK1 (CAMKKA)): 8% | inhibition at 1 µM [1]: 18% | inhibition at 1 µM (TEC): 4% | inhibition at 1 µM (STK39 (STLK3)): 24% | inhibition at 1 µM (KIT V654A): 25% | inhibition at 1 µM (BMPR2): 116% | inhibition at 1 µM (STK16 (PKL12)): 51% | inhibition at 1 µM (CDK9/cyclin K): 59% | inhibition at 1 µM (AMPK (A1/B2/G1)): 86% | inhibition at 1 µM (CDK8/cyclin C): 40% | inhibition at 1 µM (LIMK1): 23% | inhibition at 1 µM (MAP2K2 (MEK2)): 94% | inhibition at 1 µM (MAPK9 (JNK2)): 25% | inhibition at 1 µM [2]: 98% | inhibition at 1 µM (LRRK2 FL): 95% | inhibition at 1 µM (CAMK1 (CaMK1)): 10% | inhibition at 1 µM (SPHK1): -3% | inhibition at 1 µM (PIK3C3 (hVPS34)): 9% | inhibition at 1 µM (PIP5K1B): 33% | inhibition at 1 µM [3]: 53% | inhibition at 1 µM (NUAK1 (ARK5)): 65% | inhibition at 1 µM (LRRK2 G2019S): 95% | inhibition at 1 µM (CDK6/cyclin D1): 14% | inhibition at 1 µM (PI4K2B (PI4K2 beta)): 1% | inhibition at 1 µM (PI4KB (PI4K beta)): 41% | inhibition at 1 µM (PIK3C2G (PI3K-C2 gamma)): 47% | inhibition at 1 µM (CDK7/cyclin H/MNAT1): 27% | inhibition at 1 µM [4]: 33% | inhibition at 1 µM (DAPK1): 57% | inhibition at 1 µM (PI4KA (PI4K alpha)): 0% | inhibition at 1 µM (LRRK2): 90% | inhibition at 1 µM [5]: 70%
